{"source": "patent US20090105172A1", "about": "“Stabilized Aptamers to PSMA and Their Use as Prostate Cancer Therapeutics” (priority 2005, published 2009)", "key": {"LNCaP cells": {"tested_on": "LNCaP cells", "test": "Cell proliferation assay (BrdU ELISA), targeted killing", "type": "cell-based", "details": "for effect on LNCaP cell viability: entire concentration range", "method": "Effects on LNCaP cell viability were assessed in a cell proliferation assay based on chemiluminescent detection of BrdU described below (Cell Proliferation ELISA, BrdU (Roche, Indianapolis, Ind.). PC-3 cells were used as a control cell line.\nMedia from LNCaP (PSMA+) or PC3 (PSMA−) cells growing in 15 cm plates was aspirated off then cells were washed with 10 mL 1×PBS. Cells were trypsinized for 30 sec at 37° C. Following trypsinization, 8 mL 10% FBS media was used to quench trypsin. […] Following spin the media was aspirated off and the cell pellet was re-suspended with 10 mL complete media. The cell density was adjusted to 200,000 cells/mL. 50 μl of cells/well was added to collagen coated black 96-well plates (10,000 cells/well). […] Following overnight incubation 25 μl of media, aptamer or antibody was added to each well with the final volume in the well being 100 μl and incubated at 37° C. in 5% CO2 for designated time length. […] After 2 days 20 μl BrdU labeling reagent (100×) is mixed with 2 mL of complete media. […] After incubation, the media was removed, and the assay was completed following the manufacturer's protocol: 200 μl/well FixDenat solution was added to each well and incubated for 30 min at RT. Following removal of FixDenat solution 100 μl anti-BrdU POD Fab fragment solution (Luminol/4-iodophenol) was added to each well and incubated for 90 min at RT. After incubation anti-BrdU POD solution was removed and plates were washed with 200 μl/well of washing solution three times with 5 min RT incubations. 100 μl of substrate solution was added to each well and cells were incubated for 3 min at RT in the dark. The plates were read using a luminescence program with a 1 sec count on a Packard TopCount Microplate Scintillation and Luminescence Counter."}, "LNCaP cells (PSMA+)": {"tested_on": "LNCaP cells (PSMA+)", "test": "LNCaP FACS binding assay with fluorescein-labeled aptamers", "type": "cell-based", "details": "FACS analysis; scrambled A9 negative control", "description": "To prepare aptamers for the FACS assay, PSMA aptamers were serially diluted (0-1 uM) in FACS buffer (1×DPBS w/Ca^++/Mg^++ (Gibco, Carlsbad, Calif.) supplemented with 10 mg/mL salmon sperm DNA & 0.2% Na Azide), in a V-bottom 96 well plate, at the concentrations to be tested. LNCaP and PC-3 cells (ATCC, Manassas, Va.) were harvested with trypsin, and 200,000 cells/well were counted, washed once with 1×DPBS (with Ca^++ and Mg^+) and resuspended in 200 μl of FACS Buffer. The 200 μl of cells in FACS buffer were added to individual wells of a new 96 well plate, pelleted by centrifugation (1300 rpm for 5 minutes), and resuspended in 100 μl of the appropriate concentration of diluted aptamer. FACS buffer, a-PSMA antibody (3C6) (Northwest Biotherapeutics, Bothell, Wash., Cat #: 60-5002) and an irrelevant fluorescein isothiocyanate (“FITC”) mouse IgG1 isotype control antibody (BD Pharmingen, San Diego, Calif., Cat#: 554679) were used as controls. The wells of aptamer/cell mixture were incubated at room temperature for 20-30 minutes.\nAfter incubation, 180 μl of FACS buffer (plus 10 mg/mL ssDNA, and 0.2% Na Azide) was added to each well to quench the reaction and cells were pelleted by centrifugation.\nAnti-fluorescein/Oregon Green®, rabbit IgG fraction, Alexa Fluor® 488 conjugate (Molecular Probes, Eugene, Oreg., Cat#: A11090) was diluted 1:100 in FACS buffer (100 μl/well) as the secondary antibody for the aptamer-FITC conjugates and FITC-mouse IgG isotype control. FITC Rat anti-mouse IgG1 (A85-1) (BD Pharmingen, San Diego, Calif., Cat#: 553443) was diluted in 1:100 in FACS Buffer as the secondary for the α-PSMA antibody. After centrifugation, the cell pellets were resuspended in 100 μl of the appropriate diluted secondary antibody, and incubated 10 minutes at room temperature. After incubation, 180 μl of FACS buffer was added to each well to quench the reaction, and cells were pelleted by centrifugation.\nA tertiary antibody which recognizes the Alexa Fluor® 488 goat anti-rabbit IgG was prepared to further amplify the Alexa Fluor signal. Alexa Fluor® 488 goat anti-rabbit IgG (H+ L) (Molecular Probes, Eugene, Oreg., Cat#: A11034) was diluted 1:100 in FACS buffer, and the pelleted cells were resupsended in 100 μl of the tertiary antibody and incubated for 10 minutes at room temperature. […]\nCell samples were analyzed on a FACS Scan machine (Becton Dickinson, San Jose, Calif.) under the following parameters: FSC/SSC, FL-1/FSC, FL-3/FSC. The unstained and/or isotype controls were used to establish gating parameters, and the data was analyzed using Cell Quest Pro software version 5.1.1 (Becton Dickinson Immunocytometry Systems, San Jose, Calif.)."}, "ECD PSMA": {"target": "T1, ECD PSMA (Homo sapiens, UniProt Q04609)", "T1 construct": "vector-derived N-terminal linker […]; made in house; host or cells: 293 Freestyle cells, pSecTag2B vector", "T1 sequence (Q04609 with tags, fused parts or gaps)": "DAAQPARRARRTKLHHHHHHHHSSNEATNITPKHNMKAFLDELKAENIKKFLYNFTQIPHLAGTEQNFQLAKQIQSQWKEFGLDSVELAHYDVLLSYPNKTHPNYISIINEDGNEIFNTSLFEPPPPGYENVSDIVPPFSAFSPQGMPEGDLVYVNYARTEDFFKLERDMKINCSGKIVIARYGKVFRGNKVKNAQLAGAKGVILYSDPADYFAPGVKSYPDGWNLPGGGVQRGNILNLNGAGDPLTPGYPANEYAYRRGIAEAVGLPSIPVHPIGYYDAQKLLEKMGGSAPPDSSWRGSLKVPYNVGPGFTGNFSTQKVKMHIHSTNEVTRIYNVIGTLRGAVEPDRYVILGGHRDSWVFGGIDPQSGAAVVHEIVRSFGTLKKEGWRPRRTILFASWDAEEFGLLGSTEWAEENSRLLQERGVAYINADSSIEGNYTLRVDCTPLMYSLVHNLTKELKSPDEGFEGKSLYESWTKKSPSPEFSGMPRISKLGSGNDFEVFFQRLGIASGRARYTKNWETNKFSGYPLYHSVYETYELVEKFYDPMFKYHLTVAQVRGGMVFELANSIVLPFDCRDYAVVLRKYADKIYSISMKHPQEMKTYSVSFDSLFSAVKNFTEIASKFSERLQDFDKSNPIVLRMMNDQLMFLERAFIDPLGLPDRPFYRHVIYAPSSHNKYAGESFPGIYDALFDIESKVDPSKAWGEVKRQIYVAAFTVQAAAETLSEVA", "test": "Dot blot binding assay (nitrocellulose filter) with purified ECD PSMA", "details": "for Max % bound (highest % of minimer bound to target protein): dot blot", "excerpt": "Protein Purification of ECD of PSMA: An I.M.A.G.E. clone (5202715) encoding full length recombinant human PSMA was purchased from Open Biosystems (Clone EHS1001-18533, Huntsville, Ala.). PCR was used to amplify the extracellular portion of the full length clone. An oligo with an N-terminal histidine tag was designed to engineer a construct which lacks the transmembrane domain residues 1-44. The his-tagged extracellular domain (ECD) was subcloned into the pSecTag2B expression vector (Invitrogen, Carlsbad, Calif.). The ECD of PSMA was purified in house from transfected 293 Freestyle cells (ATCC, Manassas, Va.). The amino acid sequence of the expressed protein comprising an N-terminal linker sequence of […] followed by eight Histidines is listed below: […] VSDr[…]a[…]r[…]rYV […] (SEQ ID NO 5)\nDot Blot Binding Analysis. Dot blot binding assays were performed throughout the selections to monitor the protein binding affinity of the pools. For initial pool screening, trace ^32P-labeled pool RNA was combined with PSMA and incubated at room temperature for 30 min in 1×SHMCK buffer pH 7.4 (20 mM Hepes pH 7.4, 120 mM NaCl, 5 mM KCl, 1 mM MgCl2, 1 mM CaCl2) plus 0.1 mg/mL tRNA in a final volume of 30 μl. The mixture was applied to a dot blot apparatus (Schleicher and Schuell Minifold-1 Dot Blot, Acrylic, Keene, N.H.), assembled (from top to bottom) with nitrocellulose, nylon, and gel blot membranes. RNA that is bound to protein is captured on the nitrocellulose filter; whereas the non-protein bound RNA is captured on the nylon filter. […] The Round 9 pool was cloned and screened in a single point dot blot assay using 100 nM PSMA (0 nM PSMA was used as a negative control). Clone transcripts were 5′ end labeled with ^32-P ATP. Likely binders were than assayed for KD determination by the blot assay conditions described directly above, but without tRNA, using an 8 point PSMA titration with a constant RNA concentration. […] Both of the clones screened were unique sequences in the Round 9 selection pool.\nIn order to identify the core structural elements required for ARC955 binding to PSMA, the 3′-boundaries of the clone was determined through alkaline hydrolysis. The parent RNA transcript was labeled at the 5′-end with γ-^32P ATP and T4 polynucleotide kinase. Radiolabeled ligands were subjected to partial alkaline hydrolysis and then selectively bound in solution to ECD PSMA (purified in house) at 100 nM before being passed through nitrocellulose filters (Centrex MF 1.5 mL, 0.45 μm, Schleicher & Schuell, Keene N.H.). Retained oligonucleotides were resolved on 8% denaturing polyacrylamide gels. The smallest oligonucleotide bound to PSMA defined the 3′-boundary. On the basis of the boundary experiments as well as visual inspection of predicted folds, truncated constructs were synthesized. Clones were then assayed by dot blot as previously described to determine their KD. […] The binding curve for ARC1091 in the dot blot assay is depicted in FIG. 5A, and the predicted secondary structure of ARC1091 is depicted in FIG. 5B. The KD and maximum % bound for the 3 minimized constructs with the overall highest PSMA affinity, as determined by a dot blot binding assay, are listed in Table 4. For the minimized rGmH aptamers described in Table 5 below, the guanosine triphosphates are 2′-OH and the adenosines triphosphates, cytidine triphosphates and uridine triphosphates are 2′-OMe. Unless noted otherwise, the individual sequences are represented in the 5′ to 3′ orientation. In some embodiments, the invention comprises aptamers with a nucleic acid sequence as described in Table 4 below. In some embodiments, the nucleic acid sequence of an aptamer described in Table 4 below additionally comprises a 3′ cap (e.g., an inverted dT cap), and/or 5′ amine (NH2) modification to facilitate chemical coupling, and/or conjugation to a high molecular weight, non-immunogenic compound (e.g., PEG). […]"}, "[1]": {"details": "Round 9 PSMA rGmH clones, 8 point PSMA titration, without tRNA"}}, "note": "“Also recorded” adds a separate entry of the source. {C6-FAM} = fluorescein label attached via 5'-amine; [invdT] = inverted (3'-3') thymidine; m = 2'-O-methyl; r = 2'-OH (RNA); f = 2'-fluoro"}
{"compound": "O=c1c(-c2ccc(O)cc2)coc2cc(O)cc(O)c12", "note": "[Genistein, reference compound]", "values": [{"measurement": "effect in cytotoxicity assays at 25 μM", "setting": "LNCaP cells; positive control, 25 μM", "result": "partial inhibition"}, {"measurement": "effect in cytotoxicity assays at 150 μM", "setting": "LNCaP cells; positive control, 150 μM", "result": "complete cell killing"}]}
{"compound": "C6 FAM-GGAGGACCGAAAAAGACCUGACUUCUAUACUAAGUCUACGUUCCUCC-3T (2'-fluoro at CU, RNA at AG, [invdT] at 3' end, 5' {C6-FAM}, backbone not given here) [ARC710, fluorescently labeled A9 minimer]", "values": [{"measurement": "competition with fluorescently labeled anti-PSMA antibody for binding to the surface of LNCaP cells", "setting": "LNCaP cells (PSMA+)", "result": "effectively competes"}]}
{"compound": "CUACUACACAUGGGUCGGGUGAGUGGCAAAGGAAUAGUAG (2'-O-methyl at ACU, RNA at G, backbone not given here) [ARC725, non-functional rGmH minimer, irrelevant control]", "values": [{"measurement": "PSMA binding", "setting": "ECD PSMA", "result": "no intrinsic PSMA binding; also recorded: not to exhibit PSMA binding"}, {"measurement": "KD (nM)", "setting": "ECD PSMA; rGmH minimers", "result": "no binding"}, {"measurement": "Max % bound (highest % of minimer bound to target protein)", "setting": "ECD PSMA; rGmH minimers", "result": "no binding"}]}
{"compound": "CUACUGGGUGGCUGGGAGGGGAAGAGGGAGUAG (2'-O-methyl at ACU, RNA at G, backbone not given here) [ARC1089, rGmH minimer]", "values": [{"measurement": "Kd", "setting": "ECD PSMA; rGmH minimers", "result": 9.3, "unit": "nM"}, {"measurement": "Max % bound (highest % of minimer bound to target protein)", "setting": "ECD PSMA; rGmH minimers", "result": 22, "unit": "%"}]}
{"compound": "GGGUGGCUGGGAGGGGAAGAGGG (2'-O-methyl at ACU, RNA at G, backbone not given here) [ARC1088, rGmH minimer]", "values": [{"measurement": "Kd", "setting": "ECD PSMA; rGmH minimers", "result": 2.1, "unit": "nM"}, {"measurement": "Max % bound (highest % of minimer bound to target protein)", "setting": "ECD PSMA; rGmH minimers", "result": 33, "unit": "%"}]}
{"compound": "UAAUACGACUCACUAUAGGGAGAGGAGAGAACGUUCUACUAUGGGUGGCUGGGAGGGGAAGAGGGAGUAGGUCGAUCGAUCGAUCAUCGAUG [ARC955]", "values": [{"measurement": "effect on LNCaP cell viability", "setting": "LNCaP cells", "result": "no intrinsic effect on cell viability"}, {"measurement": "Kd", "setting": "ECD PSMA; [1]", "result": 9, "unit": "nM"}]}
{"compound": "UAAUACGACUCACUAUAGGGGAGAGGAGAGAACGUUCUACACAUGGGUCGGGUGAGUGGCAAAGGAAUAGGUCGAUCGAUCGAUCAUCGAUG [ARC956]", "values": [{"measurement": "Kd", "setting": "ECD PSMA; [1]", "result": 16, "unit": "nM"}]}
{"compound": "c6 fam-mCmGmGmAfCfCmGAAAAmAmGmAmCfCfUGAfCfUfUfCfUAfUAfCfUAAmGmUmCmUAfCmGfUmUmCmCmG-3T (CGGACCGAAAAAGACCUGACUUCUAUACUAAGUCUACGUUCCG; sugars from the 5' end mmmmffmrrrrmmmmffrrfffffrfrffrrmmmmrfmfmmmm, [invdT] at 3' end, 5' {C6-FAM}, backbone not given here) [ARC711, fluorescently labeled A9 minimer]", "values": [{"measurement": "competition with fluorescently labeled anti-PSMA antibody for binding to the surface of LNCaP cells", "setting": "LNCaP cells (PSMA+)", "result": "effectively competes"}]}
{"compound": "mAGmAGGmAGmAGmAmAmCGmUmUmCmUmAmCmUmAmUGGGmUGGmCmUGGGmAGGGG (AGAGGAGAGAACGUUCUACUAUGGGUGGCUGGGAGGGG; 2'-O-methyl at ACU, RNA at G, backbone not given here) [ARC1091, minimized ARC955 (G2) aptamer]", "values": [{"measurement": "PSMA binding", "setting": "ECD PSMA", "result": "maintains the full binding capacity"}, {"measurement": "Kd", "setting": "ECD PSMA; rGmH minimers", "result": 3.1, "unit": "nM"}, {"measurement": "Max % bound (highest % of minimer bound to target protein)", "setting": "ECD PSMA; rGmH minimers", "result": 52, "unit": "%"}]}
{"compound": "mCmGmGmAfCfCmGAAAAmAmGmAmCfCfUGAfCfUfUfCfUAfUAfCfUAAmGmUmCmUAfCmGfUmUmCmCmG-3T (CGGACCGAAAAAGACCUGACUUCUAUACUAAGUCUACGUUCCG; sugars from the 5' end mmmmffmrrrrmmmmffrrfffffrfrffrrmmmmrfmfmmmm, [invdT] at 3' end, backbone not given here) [ARC942, minimized A9 aptamer]", "values": [{"measurement": "effect on LNCaP cell viability", "setting": "LNCaP cells", "result": "no intrinsic effect on cell viability"}]}
